Assay results: patent publication US5563044A, “Process for the enzymatic preparation of GRF(1-44)NH2” (Hoffmann-La Roche Inc., priority 1995, dated 1996)
Ends that are not written are not given here.

Columns and labels:
[1] = qualitative statement in background; comparison of the 44, 40 and 37 amino acid forms and the free acid; cited from earlier work
[2] = system: rat pituitary cell cultures; test: In vitro bioassay in rat pituitary cell cultures with a specific rat growth hormone radioimmunoassay; type: cell-based; conditions: relative potency; rat pituitary in vitro bioassay in which the potency of GRF(1-44)-NH2 standard is 1.00; enzymatically prepared product of Example 1
Experimental: All amino acid derivatives were of the L-configuration and purchased from Bachem (Torrance, Calif.). Porcine trypsin (Sigma, Type IX) was assayed against N^α benzoyl-L-arginine ethyl ester (BAEE) and the specific activity determined to be 1.85×10^4 U/mg. It was treated with N-tosyl-L-phenylalaninechloromethylketone (TPCK) [G. Schoellman and E. Shaw, Biochemistry, 2, 252 ([…])] and dialyzed extensively against distilled water and lyophilized to give 2.02×10^4 U/mg. N,N-Dimethylacetamide (Kodak, Spectro Grade) and 1,4-butanediol (Sigma, Gold Label) were dried over 3A sieves. Tryptic digests were carried out in solutions of the peptide (1 mg/mL) and bovine trypsin (Millipore, 0.1 mg/mL) in 0.5M NH4 HCO3 (pH 8.0) for 20 hours. All pH measurements were made with a glass electrode. In vitro bioassays were done in rat pituitary cell cultures and using a specific rat growth hormone radioimmunoassay as previously described (P. Brazeau et al., Proc. Natl. Acad. Sci. USA, 79, 7909 (1982). GRF(1-43)-OH was prepared by solid-phase synthesis as follows:
The final yield of GRF(1-44)-NH2 was 1.95 mg ([…], 37%). FAB-MS: (M+H)^+ Calc: 5040.7, Found: 5040.5. Amino Acid Anal (6M HCl; 110° C., 72 h.): Asp, 4.12(4); Thr, 0.97(1); Ser, 3.65(4); Glu, 7.54(7); Gly, 2.99(3); Ala, 5.27(5); Val, 1.04(1); Met, 0.92(1); Ile, 2.01(2); Leu, 5.13(5); Tyr, 1.87(2); Phe, 0.91(1); Lys, 2.03(2); Arg, 5.54(6). […]

Substance | Level of activity / potency among GRF forms [1] | In vitro biological potency [2]
GRF(1-44)-NH2 | full intrinsic activity and highest potency | 0.92±0.22
GRF(1-40)-OH (YADAIFTNSYRKVLGQLSARKLLQDIMSRQQGESNQERGA-OH; UniProt P01286 32-71, looked up, fragment) [free acid form of Growth Hormone Releasing Factor mentioned in the background, reference compound] | substantially lower level of activity | –
